A value given as a limit tells only on which side of the number the result lay.

For 34 molecules, Ki results are on record in US20110086834A1, “ALKYNYL ALCOHOLS AS KINASE INHIBITORS” (AMGEN INC., priority 2008, published 2011).

T1 sequence (Q99558 400-655 limits assumed): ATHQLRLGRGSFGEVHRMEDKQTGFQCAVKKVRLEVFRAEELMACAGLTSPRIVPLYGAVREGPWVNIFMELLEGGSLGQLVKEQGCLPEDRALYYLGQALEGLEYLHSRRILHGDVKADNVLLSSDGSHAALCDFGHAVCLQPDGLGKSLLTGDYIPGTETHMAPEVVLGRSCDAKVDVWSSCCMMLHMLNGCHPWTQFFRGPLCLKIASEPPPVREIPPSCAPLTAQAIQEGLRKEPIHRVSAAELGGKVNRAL

This assay concerns the target T1, NIK (Homo sapiens, UniProt Q99558).
T1 construct: Both assays utilize a truncated form of NIK containing only the catalytic domain; made in house; host or cells: baculovirus expression system (insect cells implied)
Kind of assay: homogenous time resolved fluorescence (HTRF) assay for NIK Ki measurement. It counts as biochemical. Particulars: truncated NIK (catalytic domain only), autophosphorylation; 10 nM enzyme; 20, 100, 200 or 500 μM ATP; room temperature, 2 hours; read-out: Ki activity in the homogenous time resolved fluorescence (HTRF) assay for NIK. The protocol:
Two formats of biochemical assays are implemented: (1) chemiluminescent (CL) assay for NIK IC50 determination; (2) homogenous time resolved fluorescence (HTRF) assay for NIK Ki measurement. […] The NIK proteins are purified with baculovirus expression system and further biotinylated with N-hydroxysuccinamide biotin ester (Sigma). […] The reaction mixtures are then immobilized on a Streptavidin-coated plate (Pierce). […] For the HTRF assay, 10 nM of enzyme are incubated with compounds in the presence of 20, 100, 200, or 500 μM of ATP in a buffer with 20 mM of Hepes pH7.5, 20 mM of MgCl2, 0.2% of Tween 20 and 1 mM of DTT at room temperature for 2 hours.
(In general: In TR-FRET formats the signal depends on donor and acceptor labels being close together.)
By Ki is commonly meant a dissociation constant, usually derived from enzyme kinetics or from competition with a known ligand. Regarding `Cc1cc([C@](C)(O)C#Cc2ccc3c(c2)N(c2ncns2)CC3(C)C)no1` [Example 14, (R)-4-(3,3-dimethyl-1-(1,2,4-thiadiazol-5-yl)indolin-6-yl)-2-(5-methylisoxazol-3-yl)but-3-yn-2-ol], the Ki was less than 1000 nM.
For `Nc1ncc(Cl)c(-c2cn(CC3CCOC3)c3ccc(C#CC4(O)CCCC4)cc23)n1` (stereo not shown) [Example 134, 1-(2-(3-(2-amino-5-chloropyrimidin-4-yl)-1-((tetrahydrofuran-3-yl)methyl)-1H-indol-5-yl)ethynyl)cyclopentanol], the Ki is less than 1000 nM.
As for `CC(O)(C#Cc1ccc2c(c1)N(c1ncncc1Cl)CC2(C)C)c1nccs1` (stereo not shown) [Example 312, 4-(1-(5-chloro-4-pyrimidinyl)-3,3-dimethyl-2,3-dihydro-1H-indol-6-yl)-2-(1,3-thiazol-2-yl)-3-butyn-2-ol], the figure is less than 1000 nM; as for `Cc1cc([C@](C)(O)C#Cc2ccc3c(c2)N(c2nc(N)ncc2Cl)CC3)no1` (single isomer, unassigned) [Example 25], less than 1000 nM; as for `CC(O)(C#Cc1ccc2c(c1)N(c1nc(N)ncc1Cl)CC21CCSCC1)c1nccs1` (racemic) [Example 214, (rac)-4-(1-(2-Amino-5-chloro-4-pyrimidinyl)-1,2,2′,3′,5′,6′-hexahydrospiro[indole-3,4′-thiopyran]-6-yl)-2-(1,3-thiazol-2-yl)-3-butyn-2-ol], less than 1000 nM.
The figure for `Cc1ccc(S(=O)(=O)n2nccc2C(C)(O)C#Cc2ccc3c(c2)N(c2ccnc(N)n2)CC3)cc1` (stereo not shown) [Example 76, 4-(1-(2-Amino-4-pyrimidinyl)-2,3-dihydro-1H-indol-6-yl)-2-(1-((4-methylphenyl)sulfonyl)-1H-pyrazol-5-yl)-3-butyn-2-ol] is less than 1000 nM; for `CC(O)(C#Cc1cncc(C(=O)Nc2ccncn2)c1)c1nccs1` (stereo not shown) [Example 168, 5-(3-Hydroxy-3-(thiazol-2-yl)but-1-ynyl)-N-(pyrimidin-4-yl)nicotinamide] it is 1000 to 30000 nM; for `Cn1cnc(C(C)(O)C#Cc2ccc3c(c2)N(c2nc(N)ncc2Cl)CC3(C)C)c1` (stereo not shown) [Example 45, 4-(1-(2-amino-5-chloro-4-pyrimidinyl)-3,3-dimethyl-2,3-dihydro-1H-indol-6-yl)-2-(1-methyl-1H-imidazol-4-yl)-3-butyn-2-ol] it is less than 1000 nM.
For `CN1CC2(C1)CN(c1nc(N)ncc1Cl)c1cc(C#CC3(O)CCCC3)ccc12` [Example 180, 1-((1′-(2-amino-5-chloropyrimidin-4-yl)-1-methylspiro[azetidine-3,3′-indoline]-6′-yl)ethynyl)cyclopentanol], the Ki was less than 1000 nM.
The figure for `COCCOCCOc1cnc(N)nc1-c1c[nH]c2ccc(C#CC3(O)CCCC3)cc12` [Example 228, 1-((3-(2-Amino-5-(2-(2-methoxyethoxy)ethoxy)-4-pyrimidinyl)-1H-indol-5-yl)ethynyl)cyclopentanol] is less than 1000 nM; for `CN1CCC2(CC1)CN(c1nc(N)nc3[nH]cnc13)c1cc(C#CC3(O)CCCC3)ccc12` [Example 187, 1-((1-(2-amino-9H-purin-6-yl)-1′-methylspiro[indoline-3,4′-piperidine]-6-yl)ethynyl)cyclopentanol] it is less than 1000 nM; for `Cc1ccc(C#CC(C)(O)c2nccs2)cc1Nc1ccc(C#N)cn1` (stereo not shown) [Example 170, 6-(5-(3-Hydroxy-3-(thiazol-2-yl)but-1-ynyl)-2-methylphenylamino)nicotinonitrile] it is 1000 to 30000 nM.
`COCCOc1ccc(C#C[C@](C)(O)c2cc(C)on2)cc1Nc1nc(N)ncc1Cl` (single isomer, unassigned) [Example 178]: the Ki was in the range of 1000 to 30000 nM.
As for `CC(O)(C#Cc1ccc2c(c1)N(c1ccnc(N)n1)CC2)c1ccco1` (stereo not shown) [Example 269, 4-(1-(2-Amino-4-pyrimidinyl)-2,3-dihydro-1H-indol-6-yl)-2-(2-furanyl)-3-butyn-2-ol], the figure is less than 1000 nM; as for `OC1(C#Cc2ccc3ccn(-c4cc(Nc5ccccc5)ncn4)c3c2)CCCC1` [Example 257, 1-((1-(6-(phenylamino)-4-pyrimidinyl)-1H-indol-6-yl)ethynyl)cyclopentanol], 1000 to 30000 nM.
As for `COc1ccc(C#CC(C)(O)c2cc(C)no2)cc1Nc1nc(N)ncc1Cl` (stereo not shown) [Example 144, 4-(3-((2-amino-5-chloro-4-pyrimidinyl)amino)-4-(methyloxy)phenyl)-2-(3-methyl-5-isoxazolyl)-3-butyn-2-ol], the figure is less than 1000 nM.
Take `CC1(C)CN(c2ccncc2)c2cc(C#C[C@@](C)(O)c3nccs3)ccc21` [Example 306, (2R)-4-(3,3-dimethyl-1-(4-pyridinyl)-2,3-dihydro-1H-indol-6-yl)-2-(1,3-thiazol-2-yl)-3-Butyn-2-ol]: the Ki is less than 1000 nM.
As for `CNc1nc(N2CC3(CCOCC3)c3ccc(C#CC4(O)CCCC4)cc32)c2nc[nH]c2n1` [Example 207, 1-((1-(2-(Methylamino)-9H-purin-6-yl)-1,2,2′,3′,5′,6′-hexahydrospiro[indole-3,4′-pyran]-6-yl)ethynyl)cyclopentanol], the figure is less than 1000 nM.
The figure for `Cn1ccc(C(C)(O)C#Cc2ccc3c(c2)N(c2nc(N)ncc2Cl)CC3)n1` (stereo not shown) [Example 26, 4-(1-(2-amino-5-chloropyrimidin-4-yl)indolin-6-yl)-2-(1-methyl-1H-pyrazol-3-yl)but-3-yn-2-ol] is less than 1000 nM.
As for `Cn1cc(-c2ccncn2)c2cc(C#CC(C)(O)c3cscn3)ccc21` (stereo not shown) [Example 118, 4-(1-methyl-3-(pyrimidin-4-yl)-1H-indol-5-yl)-2-(thiazol-4-yl)but-3-yn-2-ol], the figure is less than 1000 nM; as for `Nc1ncc2c(n1)-c1c([nH]c3ccc(C#CC4(O)CCCC4)cc13)C(=O)NC2` [Example 243, 2-Amino-11-((1-hydroxycyclopentyl)ethynyl)-5,8-dihydropyrimido[4′,′:5,6]azepino[3,4-b]indol-7(6H)-one], less than 1000 nM.
`COCCOCCn1cc(-c2nc(N)ncc2Cl)c2cc(C#CC3(O)CCCC3)ccc21` [Example 124, 1-(2-(3-(2-amino-5-chloropyrimidin-4-yl)-1-(2-(2-methoxyethoxy)ethyl)-1H-indol-5-yl)ethynyl)cyclopentanol]: the Ki was less than 1000 nM.
The figure for `C[C@@](O)(C#Cc1ccc2c(c1)N(c1nc(N)ncc1Cl)CC21COC1)c1nccs1` (single isomer, unassigned) [Example 82] is less than 1000 nM.
As for `CC(C)(C)C(=O)n1cc(-c2nc(N)ncc2Cl)c2cc(C#CC3(O)CCCC3)ccc21` [Example 122, 1-(3-(2-amino-5-chloropyrimidin-4-yl)-5-(2-(1-hydroxycyclopentyl)ethynyl)-1H-indol-1-yl)-2,2-dimethylpropan-1-one], the figure is less than 1000 nM; as for `CC(O)(C#Cc1ccc2c(c1)N(c1nc(N)ncc1Cl)CC21CCCOC1)c1nccs1` (stereo not shown) [Example 248, 4-(1-(2-Amino-5-chloro-4-pyrimidinyl)-1,2,5′,6′-tetrahydro-4′H-spiro[indole-3,3′-pyran]-6-yl)-2-(1,3-thiazol-2-yl)-3-butyn-2-ol], less than 1000 nM; as for `COc1ccc(C#CC(C)(O)c2nccs2)cc1Nc1nc(N)ncc1Cl` (stereo not shown) [Example 143, 4-(3-((2-amino-5-chloro-4-pyrimidinyl)amino)-4-(methyloxy)phenyl)-2-(1,3-thiazol-2-yl)-3-butyn-2-ol], less than 1000 nM.
As for `COCCOc1ccc(C#C[C@@](C)(O)c2cc(C)on2)cc1Nc1nc(N)ncc1Cl` (single isomer, unassigned) [Example 179], the figure is less than 1000 nM; as for `Cn1cc(-c2nc(N)ncc2Cl)c2cc(C#CC(C)(O)c3nccs3)ccc21` (stereo not shown) [Example 116, 4-(3-(2-amino-5-chloropyrimidin-4-yl)-1-methyl-1H-indol-5-yl)-2-(thiazol-2-yl)but-3-yn-2-ol], less than 1000 nM; as for `CC1(CO)CN(c2nc(N)ncc2Cl)c2cc(C#CC3(O)CCCC3)ccc21` (single isomer, unassigned) [Example 55, 1-(((3R*)-1-(2-amino-5-chloro-4-pyrimidinyl)-3-(hydroxymethyl)-3-methyl-2,3-dihydro-1H-indol-6-yl)ethynyl)cyclopentanol], less than 1000 nM.
In the case of `Cc1cc(C(C)(O)C#Cc2ccc3c(c2)N(c2nc(N)ncc2Cl)CC32CCOCC2)no1` (racemic) [Example 210, (rac)-4-(1-(2-Amino-5-chloro-4-pyrimidinyl)-1,2,2′,3′,5′,6′-hexahydrospiro[indole-3,4′-pyran]-6-yl)-2-(5-methyl-3-isoxazolyl)-3-butyn-2-ol], the Ki is less than 1000 nM.
The figure for `Nc1ncc(F)c(N2CCc3ccc(C#CC4(O)CCCC4)cc32)n1` [Example 68, 1-((1-(2-amino-5-fluoro-4-pyrimidinyl)-2,3-dihydro-1H-indol-6-yl)ethynyl)cyclopentanol] is less than 1000 nM.
The figure for `C[C@@](O)(C#Cc1ccc2ncc(-c3nc(N)ncc3Cl)n2c1)c1nccs1` [Example 296, (2R)-4-(3-(2-amino-5-chloro-4-pyrimidinyl)imidazo[1,2-a]pyridin-6-yl)-2-(1,3-thiazol-2-yl)-3-butyn-2-ol] is less than 1000 nM; for `Nc1ncc(F)c(N2CC3(CCOCC3)c3ccc(C#CC4(O)CCCC4)cc32)n1` [Example 206, 1-((1-(2-Amino-5-fluoro-4-pyrimidinyl)-1,2,2′,3′,5′,6′-hexahydrospiro[indole-3,4′-pyran]-6-yl)ethynyl)cyclopentanol] it is less than 1000 nM; for `CC(O)(C#Cc1ccc2c(c1)N(c1ccnc(N)n1)CC2)c1cccs1` (stereo not shown) [Example 273, 4-(1-(2-Amino-4-pyrimidinyl)-2,3-dihydro-1H-indol-6-yl)-2-(2-thienyl)-3-butyn-2-ol] it is less than 1000 nM.
